Experimental data as given in article PMC6499206, “Quantification of Volatile Metabolites Derived From Garlic (Allium sativum) in Human Urine” (Frontiers in Nutrition, 2019).

Experiment: Quantification of garlic-derived metabolites in human urine after ingestion of 3 g raw garlic (SIDA, SAFE, HRGC-MS / HRGC-GC-MS)
Type: in vivo
Conditions: for metabolite concentration in urine / metabolite concentration in urine, creatinine-normalized: 3 g raw garlic
Source text: Human urine samples were obtained from 18 volunteers (age 22–38 years, mean 27 years; 11 females, 7 males); thereby, one volunteer conducted the whole experimental series twice. At the time of examination, volunteers reported no known illness that might have potentially influenced the metabolism or the excretion of urine. The test persons were instructed to avoid foods that were rich in sulfur-containing substances at the testing day as well as 2 days preceding the testing day, namely garlic, onion, wild garlic, chives, cabbage, and leek, and were only allowed to consume the garlic sample provided in the course of the experiments. Additionally, subjects were asked to keep records of the food (including food supplements) and beverages they consumed during these 3 testing days. Generally, the overall panelists' requirements were in accordance with our previous studies ([5], [16]).
On the sampling day, the outer garlic cloves of a whole garlic bulb were peeled and cut into ~3 mm cubes by using a garlic cutter (Genius GmbH, Limburg/Lahn, Germany). Subsequently these cubes were thoroughly mixed and aliquoted into 3 g portions. Three to four test persons conducted the experiment at the same day. Each test person was asked to ingest a garlic portion of 3 g. In total, eight consecutive urine samples were provided by each test person, comprising one whole urine set. The samples were collected in sterile brown glass bottles, with sampling times as follows: one sample was provided directly prior to garlic consumption. The series of the second to eighth sample was then obtained at about 0.5, 1, 2, 4, 6, 8, and 24 h after garlic consumption, respectively. Between the first urine sample (prior to garlic consumption) and the seventh urine sample (8 h after garlic consumption) test persons only spent urine at the specific time points mentioned before. Another sample was provided at the next morning (24 h after garlic consumption). Between the samples provided 8 and 24 h after garlic consumption no urine was collected. All samples were immediately placed into a −80°C freezer and were kept frozen until further analysis.
The samples of each set were termed according to their sampling time. The following list provides the time intervals that are related to the respective sample name: • - pre: before garlic consumption • - 0.5 h post: 0.4–0.8 h after garlic consumption • - 1 h post: 0.9–1.3 h after garlic consumption • - 2 h post: 1.8 h−2.2 h after garlic consumption • - 4 h post: 3.8–4.4 h after garlic consumption • - 6 h post: 5.8–6.4 h after garlic consumption • - 8 h post: 7.8–8.4 h after garlic consumption • - 24 h post: 23.8–25.6 h after garlic consumption
A creatinine kit (Labor+Technik Eberhard Lehmann GmbH, Berlin, Germany) was used to determine the creatinine content in each urine sample. The determination principle of this kit is based on the reaction of creatinine with picric acid under basic conditions (Jaffé reaction). The formed complex was detected photometrically at a wavelength of 492 nm.
For quantification purposes, the deuterated standards ^2H3-AMS, ^2H3-AMSO, and ^2H3-AMSO2 were added to the sample and stirred for 10 min. Subsequently, DCM was added in a ratio of 1:2 (DCM/human urine; v/v) and this solution was stirred for further 30 min at room temperature. To isolate the volatile fraction from the urine samples we then applied SAFE-distillation ([17]), thereby distilling the respective samples at 50°C. After completion of the distillation process, 10 mL of DCM were applied in each case to rinse the SAFE apparatus and to ensure complete transition of the volatile compounds. This process was repeated with another 10 mL of DCM. After thawing, the obtained aqueous distillate phase was extracted three times with 25 mL DCM. The organic phases were combined, dried over anhydrous Na2SO4 and concentrated to a total volume of 100 μL by means of Vigreux distillation and subsequent micro-distillation at 50°C. […]

## C=CC[S+](C)[O-] (stereo not shown) [AMSO, allyl methyl sulfoxide]
3 g raw garlic in both studies, milk data ref 20
  concentration in urine compared with human milk: about three times as high
U I, 0.5 h post (0.55 h)
  metabolite concentration in urine: 168.4 µg/kg
  metabolite concentration in urine, creatinine-normalized: 23.6 µg/mmol creatinine
U I, 1 h post (1.03 h)
  metabolite concentration in urine: 191.0 µg/kg
  metabolite concentration in urine, creatinine-normalized: 205.9 µg/mmol creatinine
U I, 2 h post (2.05 h)
  metabolite concentration in urine: 227.6 µg/kg
  metabolite concentration in urine, creatinine-normalized: 112.5 µg/mmol creatinine
U I, 4 h post (4.05 h)
  metabolite concentration in urine: 165.7 µg/kg
  metabolite concentration in urine, creatinine-normalized: 19.1 µg/mmol creatinine
U I, 6 h post (6.05 h)
  metabolite concentration in urine: 119.1 µg/kg
  metabolite concentration in urine, creatinine-normalized: 13.2 µg/mmol creatinine
U I, 8 h post (8.05 h)
  metabolite concentration in urine: 41.8 µg/kg
  metabolite concentration in urine, creatinine-normalized: 5.8 µg/mmol creatinine
U I, 24 h post (25.55 h)
  metabolite concentration in urine: 1.6 µg/kg
  metabolite concentration in urine, creatinine-normalized: 0.3 µg/mmol creatinine
U I, pre (-0.03 h)
  metabolite concentration in urine: < LOD^2
  metabolite concentration in urine, creatinine-normalized: < LOD^2
U II, 0.5 h post (0.50 h)
  metabolite concentration in urine: 147.7 µg/kg
  metabolite concentration in urine, creatinine-normalized: 14.0 µg/mmol creatinine
U II, 1 h post (1.00 h)
  metabolite concentration in urine: 133.4 µg/kg
  metabolite concentration in urine, creatinine-normalized: 51.2 µg/mmol creatinine
U II, 2 h post (2.00 h)
  metabolite concentration in urine: 63.7 µg/kg
  metabolite concentration in urine, creatinine-normalized: 62.6 µg/mmol creatinine
U II, 4 h post (4.00 h)
  metabolite concentration in urine: 64.8 µg/kg
  metabolite concentration in urine, creatinine-normalized: 12.0 µg/mmol creatinine
U II, 6 h post (6.00 h)
  metabolite concentration in urine: 33.4 µg/kg
  metabolite concentration in urine, creatinine-normalized: 3.7 µg/mmol creatinine
U II, 8 h post (8.00 h)
  metabolite concentration in urine: 15.2 µg/kg
  metabolite concentration in urine, creatinine-normalized: 1.8 µg/mmol creatinine
U II, 24 h post (24.12 h)
  metabolite concentration in urine: traces^2
  metabolite concentration in urine, creatinine-normalized: traces^2
U II, pre (-0.13 h)
  metabolite concentration in urine: < LOD^2
  metabolite concentration in urine, creatinine-normalized: < LOD^2
U III, 0.5 h post (0.53 h)
  metabolite concentration in urine: 124.4 µg/kg
  metabolite concentration in urine, creatinine-normalized: 74.5 µg/mmol creatinine
U III, 1 h post (1.07 h)
  metabolite concentration in urine: 136.4 µg/kg
  metabolite concentration in urine, creatinine-normalized: 192.7 µg/mmol creatinine
U III, 2 h post (2.18 h)
  metabolite concentration in urine: 214.7 µg/kg
  metabolite concentration in urine, creatinine-normalized: 133.1 µg/mmol creatinine
U III, 4 h post (4.35 h)
  metabolite concentration in urine: 123.7 µg/kg
  metabolite concentration in urine, creatinine-normalized: 47.0 µg/mmol creatinine
U III, 6 h post (6.35 h)
  metabolite concentration in urine: 62.3 µg/kg
  metabolite concentration in urine, creatinine-normalized: 12.2 µg/mmol creatinine
U III, 8 h post (8.43 h)
  metabolite concentration in urine: 29.0 µg/kg
  metabolite concentration in urine, creatinine-normalized: 5.2 µg/mmol creatinine
U III, 24 h post (23.90 h)
  metabolite concentration in urine: 3.0 µg/kg
  metabolite concentration in urine, creatinine-normalized: 0.5 µg/mmol creatinine
U III, pre (-0.03 h)
  metabolite concentration in urine: 4.6 µg/kg
  metabolite concentration in urine, creatinine-normalized: 0.8 µg/mmol creatinine
U IV, 0.5 h post (0.55 h)
  metabolite concentration in urine: 144.3 µg/kg
  metabolite concentration in urine, creatinine-normalized: 30.7 µg/mmol creatinine
U IV, 1 h post (1.05 h)
  metabolite concentration in urine: 141.0 µg/kg
  metabolite concentration in urine, creatinine-normalized: 117.5 µg/mmol creatinine
U IV, 2 h post (2.12 h)
  metabolite concentration in urine: 129.7 µg/kg
  metabolite concentration in urine, creatinine-normalized: 82.3 µg/mmol creatinine
U IV, 4 h post (4.05 h)
  metabolite concentration in urine: 108.9 µg/kg
  metabolite concentration in urine, creatinine-normalized: 22.6 µg/mmol creatinine
U IV, 6 h post (6.08 h)
  metabolite concentration in urine: 63.5 µg/kg
  metabolite concentration in urine, creatinine-normalized: 4.6 µg/mmol creatinine
U IV, 8 h post (8.05 h)
  metabolite concentration in urine: 31.9 µg/kg
  metabolite concentration in urine, creatinine-normalized: 6.7 µg/mmol creatinine
U IV, 24 h post (24.03 h)
  metabolite concentration in urine: 3.8 µg/kg
  metabolite concentration in urine, creatinine-normalized: 0.4 µg/mmol creatinine
U IV, pre (-0.05 h)
  metabolite concentration in urine: < LOD^2
  metabolite concentration in urine, creatinine-normalized: < LOD^2
U IX, 0.5 h post (0.67 h)
  metabolite concentration in urine: 164.4 µg/kg
  metabolite concentration in urine, creatinine-normalized: 156.1 µg/mmol creatinine
U IX, 1 h post (1.17 h)
  metabolite concentration in urine: 332.3 µg/kg
  metabolite concentration in urine, creatinine-normalized: 344.1 µg/mmol creatinine
U IX, 2 h post (1.83 h)
  metabolite concentration in urine: 337.6 µg/kg
  metabolite concentration in urine, creatinine-normalized: 320.5 µg/mmol creatinine
U IX, 4 h post (4.17 h)
  metabolite concentration in urine: 293.5 µg/kg
  metabolite concentration in urine, creatinine-normalized: 56.6 µg/mmol creatinine
U IX, 6 h post (6.08 h)
  metabolite concentration in urine: 182.9 µg/kg
  metabolite concentration in urine, creatinine-normalized: 57.5 µg/mmol creatinine
U IX, 8 h post (8.08 h)
  metabolite concentration in urine: 100.1 µg/kg
  metabolite concentration in urine, creatinine-normalized: 7.2 µg/mmol creatinine
U IX, 24 h post (24.00 h)
  metabolite concentration in urine: 30.4 µg/kg
  metabolite concentration in urine, creatinine-normalized: 3.5 µg/mmol creatinine
U IX, pre (-0.08 h)
  metabolite concentration in urine: < LOD^2
  metabolite concentration in urine, creatinine-normalized: < LOD^2
U V, 0.5 h post (0.50 h)
  metabolite concentration in urine: 84.4 µg/kg
  metabolite concentration in urine, creatinine-normalized: 123.5 µg/mmol creatinine
U V, 1 h post (1.00 h)
  metabolite concentration in urine: 122.6 µg/kg
  metabolite concentration in urine, creatinine-normalized: 146.3 µg/mmol creatinine
U V, 2 h post (2.00 h)
  metabolite concentration in urine: 104.6 µg/kg
  metabolite concentration in urine, creatinine-normalized: 124.9 µg/mmol creatinine
U V, 4 h post (4.00 h)
  metabolite concentration in urine: 104.9 µg/kg
  metabolite concentration in urine, creatinine-normalized: 34.0 µg/mmol creatinine
U V, 6 h post (6.00 h)
  metabolite concentration in urine: 68.8 µg/kg
  metabolite concentration in urine, creatinine-normalized: 13.8 µg/mmol creatinine
U V, 8 h post (8.00 h)
  metabolite concentration in urine: 29.0 µg/kg
  metabolite concentration in urine, creatinine-normalized: 13.4 µg/mmol creatinine
U V, 24 h post (24.00 h)
  metabolite concentration in urine: 1.9 µg/kg
  metabolite concentration in urine, creatinine-normalized: 0.3 µg/mmol creatinine
U V, pre (-0.05 h)
  metabolite concentration in urine: < LOD^2
  metabolite concentration in urine, creatinine-normalized: < LOD^2
U VI, 0.5 h post (0.50 h)
  metabolite concentration in urine: 193.1 µg/kg
  metabolite concentration in urine, creatinine-normalized: 88.3 µg/mmol creatinine
U VI, 1 h post (1.00 h)
  metabolite concentration in urine: 203.5 µg/kg
  metabolite concentration in urine, creatinine-normalized: 169.6 µg/mmol creatinine
U VI, 2 h post (2.00 h)
  metabolite concentration in urine: 143.4 µg/kg
  metabolite concentration in urine, creatinine-normalized: 129.2 µg/mmol creatinine
U VI, 4 h post (4.00 h)
  metabolite concentration in urine: 134.9 µg/kg
  metabolite concentration in urine, creatinine-normalized: 39.0 µg/mmol creatinine
U VI, 6 h post (6.00 h)
  metabolite concentration in urine: 188.9 µg/kg
  metabolite concentration in urine, creatinine-normalized: 35.0 µg/mmol creatinine
U VI, 8 h post (8.00 h)
  metabolite concentration in urine: 79.0 µg/kg
  metabolite concentration in urine, creatinine-normalized: 15.8 µg/mmol creatinine
U VI, 24 h post (24.17 h)
  metabolite concentration in urine: 139.8 µg/kg
  metabolite concentration in urine, creatinine-normalized: 9.6 µg/mmol creatinine
U VI, pre (-0.05 h)
  metabolite concentration in urine: < LOD^2
  metabolite concentration in urine, creatinine-normalized: < LOD^2
U VII, 0.5 h post (0.50 h)
  metabolite concentration in urine: 133.2 µg/kg
  metabolite concentration in urine, creatinine-normalized: 125.0 µg/mmol creatinine
